This is an account of results in ChEMBL document CHEMBL2016442, “Structure-activity studies of some berberine analogs as inhibitors of Toxoplasma gondii” (Bioorg Med Chem Lett, 2012).

The nature of data set [1]: Therapeutic index, ratio of TD50 for human fibroblast cell to ID 50 for Toxoplasma gondii ATCC 50839. Format: cell-based. The following applies: human fibroblast cells, read-out: TI.
A short description of data set [2]: Cytotoxicity against human fibroblasts assessed as cell viability by microplate reader. The note with it: read-out: TD50 (the source's name). Format: cell-based, Fibroblast.
For data set [3], the system named is Toxoplasma gondii. As to the kind of experiment: Antiparasitic activity against Toxoplasma gondii ATCC 50839 infected in human fibroblasts assessed as inhibition of replication of tachyzoites after 4 days by bacterial beta-galactosidase assay. Type of data set: functional. The note with it: ATCC 50839, 96 h, read-out: ID50 (the source's name).
Data set [4] has as its system Toxoplasma gondii. As to the kind of experiment: Ratio of trimethoprim ID50 to compound ID50 for Toxoplasma gondii ATCC 50839. Type of data set: functional.

For the compound `CCCC(=O)Oc1c(OC)ccc2cc3[n+](cc12)CCc1cc2c(cc1-3)OCO2`, the selectivity ratio in data set [1] came to 2000. Besides, in data set [2], the CC50 came out at 135 µM. Moreover, the IC50 in data set [3] came to 0.068 µM.

Regarding `COc1ccc2c(c1OC)C(C)N1CCc3cc4c(cc3C1=C2)OCO4` (stereo not given), the selectivity ratio in data set [1] was determined as 3. In addition, in data set [2], the CC50 was 12 µM. For the same compound, the IC50 in data set [3] was 4.2 µM.

`CCOc1c(OC)ccc2cc3[n+](cc12)CCc1cc2c(cc1-3)OCO2`: the selectivity ratio in data set [1] worked out at 12. Also, the CC50 in data set [2] is 9.6 µM. In data set [3], the IC50 stood at 0.83 µM.

Regarding `CCCCCOc1c(OC)ccc2cc3[n+](cc12)CCc1cc2c(cc1-3)OCO2`, in data set [1], the selectivity ratio was found to be 3. In addition, the CC50 in data set [2] amounted to 5.9 µM. Moreover, in data set [3], the IC50 turned out to be 1.8 µM.

On to `CCCCCCCOc1c(OC)ccc2cc3[n+](cc12)CCc1cc2c(cc1-3)OCO2`, for which the selectivity ratio in data set [1] was 5.5. In addition, the CC50 in data set [2] came to 1.1 µM. For the same compound, in data set [3], the IC50 was determined as 0.2 µM.

With `COc1ccc2cc3[n+](cc2c1OC(C)=O)CCc1cc2c(cc1-3)OCO2`, the selectivity ratio in data set [1] stood at 600. Further, the CC50 in data set [2] worked out at 45 µM. Further, the IC50 in data set [3] was 0.075 µM.

On to `CCCCCC(=O)Oc1c(OC)ccc2cc3[n+](cc12)CCc1cc2c(cc1-3)OCO2`, for which the selectivity ratio in data set [1] turned out to be 4000. In addition, the CC50 in data set [2] worked out at 145 µM. The IC50 in data set [3] was determined as 0.036 µM.

Regarding `COc1ccc2cc3[n+](cc2c1OC)CCc1cc2c(cc1-3)OCO2` [BERBERINE], in data set [4], the Ratio was found to be 30. For the same compound, in data set [1], the selectivity ratio stood at 1.5. The CC50 in data set [2] was determined as 0.85 µM. Further, the IC50 in data set [3] was 0.58 µM.

Regarding `COc1ccc2cc3[n+](cc2c1O)CCc1cc2c(cc1-3)OCO2` [BERBERRUBINE], in data set [1], the selectivity ratio came out at 1300. Besides, the CC50 in data set [2] was 81 µM. For the same compound, in data set [3], the IC50 is 0.06 µM.

As to `COc1ccc2c(c1OC)CN1CCc3cc4c(cc3[C@@H]1C2)OCO4` [CANADINE], in data set [1], the selectivity ratio was 24. In addition, the CC50 in data set [2] amounted to 210 µM. The IC50 in data set [3] worked out at 8.7 µM.

As for `COc1ccc2c(c1OC)CN1CCc3cc4c(cc3C1=C2)OCO4` [DIHYDROBERBERINE], the selectivity ratio in data set [1] came to 63. For the same compound, the CC50 in data set [2] amounted to 41 µM. The IC50 in data set [3] turned out to be 0.65 µM.

`COc1ccc2cc3n(c(=O)c2c1OC)CCc1cc2c(cc1-3)OCO2` [OXYBERBERINE]: the selectivity ratio in data set [1] was 8. Further, the CC50 in data set [2] stood at 97 µM. Further, in data set [3], the IC50 turned out to be 12 µM.

Turning to `COc1cc(Cc2cnc(N)nc2N)cc(OC)c1OC` [TRIMETHOPRIM], the selectivity ratio in data set [1] is over 3. Further, the CC50 in data set [2] is over 500 µM. In addition, the IC50 in data set [3] worked out at 15 µM.
